32 compounds from patent US12358921B2, “Antiviral heterocyclic compounds” (priority 2022, dated 2025) can be followed below.

Assay [1] concerns HUMAN RSV-A (“LONG” STRAIN). The assay is described as follows: RSV-A assay (CPE, ATPlite) in Hep-2 cells. Type of assay: cell-based. To be noted: human respiratory syncytial virus, 120 h, MOI 0.1, 5-day incubation. The procedure, abridged: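 Protection from RSV cytopathic effect read by ATP luminescence (ATPlite) after 5-day culture. Genotype A "Long" virus added at MOI 0.1 to Hep-2 monolayers at 8,000 cells/well, pre-dosed with duplicate 2-fold compound dilutions; controls include infected untreated and uninfected wells. EC50 values binned into ranges.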

The test system of another assay is hMPV A2 TN/94-49. The assay is described as follows: HMPV antiviral assay Method 1 (LLC-MK2 cells, ATP-Lite). Particulars: hMPV A2 TN/94-49, LLC-MK2 cells. Type of assay: cell-based. How it is done:
In vitro HMPV antiviral activity was evaluated using the clinical isolate A2 strain TN 94-49 (obtained from Dr. John Williams, Vanderbilt University, Tennessee) and […] cells (ATCC #CCL-7), an immortalized kidney epithelial cell line from Macaca mulatta. Compounds were resuspended in dimethyl sulfoxide (DMSO) at 10 mM, serially diluted and added to a 384-well source plate. Subsequently, the compounds were diluted and transferred onto 384-well assay plates using the Echo-650 automated liquid handling system (Beckman Coulter, Indiana). The test compounds were assessed in duplicate at a top concentration of 2 μM followed by 2.5-fold serial dilutions to give a total of 10 concentration points. DMSO control wells were also included on the assay plates and were either infected or not, acting as positive and negative controls. A2 TN 94-49 virus infections were performed in-suspension with LLC-MK2 cells. The cells were washed twice with PBS and removed from the cell-culture flask with 0.25% trypsin-EDTA (Thermo Fisher Scientific, MA). The trypsin-EDTA was inactivated by resuspending in 2% fetal bovine serum (FBS) and OptiMEM (ThermoFisher Scientific, MA) containing 1% penicillin-streptomycin. Cells were pelleted by centrifuging for 5 minutes at 800 rpm, the supernatant was removed, and cells were re-suspended and washed in PBS plus 100 μg/mL CaCl2). This step was performed twice. Cells were then re-suspended in serum-free (SF)-OptiMEM containing 4 μg/mL TPCK-Trypsin (Sigma Aldrich, MO), 1% penicillin-streptomycin (ThermoFisher Scientific, MA) and 100 μg/mL CaCl2). Cells were counted and seeded at a density of 5,000 cells/well, 12.5 μL/well. Virus infections were done at a multiplicity of infection (MOI) of 0.005 with 12.5 μL added per well. Virus infections were performed in infection media which contained SF-OptiMEM, 100 μg/mL CaCl2) and 1% penicillin-streptomycin. HMPV viral stocks are suspended in infection media+5% glycerol, thus an equal volume of infection media+5% glycerol was added to uninfected wells to equalize the final % glycerol across all wells of the assay plate. The final concentration of TPCK-trypsin was 2 μg/mL. The assay plates were incubated at 37° C., 5% CO2 for 7 days. After 7 days incubation, 12.5 μL of ATP-Lite (PerkinElmer, MA) was added to each well and the raw luminescence values were determined using the Envision 2104 (Perkin Elmer, MA). The average of the raw luminescence values for the cells and virus only positive control wells was subtracted from all conditions tested and the percent cell health was determined by dividing these values by the average of the cells only negative control wells. EC50 values were then calculated by non-linear regression using a four-parameter curve logistic equation. The curve fit model employed was XLFit Dose Response One Site Model 200: y=(A+(B/(1+((x/C)^D)))), where A is the minimum y value, B is the maximum y value, C is the log EC50value, and D is the slope factor. Method 2: In Vitro HMPV Antiviral Activity was Evaluated Using the Clinical Isolate A2 Strain TN 94-49

The structures appear in SMILES notation. Some results are limits rather than exact numbers.

Take `COc1cc(C(=O)NC[C@](O)(c2cc3c(c(-c4cc(Cl)c(F)cc4F)n2)OC[C@]3(C)C(N)=O)c2cnn[nH]2)cc2cn(C3CC3)nc12` [Example 180]: the EC50 is less than 200 nM in assay [1] and more than 500 nM in the assay with hMPV A2 TN/94-49.
For `[2H]C([2H])([2H])c1nc2c(OC)cc(C(=O)NC[C@@](O)(c3ccc(OC)cc3)c3cc4c(c(-c5cc(Cl)c(F)cc5F)n3)OC[C@]4(C)C(N)=O)cc2s1` [Example 168], in that order: less than 200 nM and less than 500 nM.
Taken in the same sequence, the figures for `COc1cc(C(=O)NC[C@@](O)(c2ccc(F)cc2)c2cc3c(c(-c4ccc5c(c4Cl)OC(F)(F)O5)n2)OC[C@]3(C)C(N)=O)cc2cc(C(F)(F)F)cnc12` [Example 26] were less than 200 nM and more than 500 nM.
For `COc1cccc([C@](O)(CNC(=O)c2cc(OC)c3nc(C)c(Cl)cc3c2)c2cc3c(c(-c4cc(Cl)c(F)cc4F)n2)OC[C@]3(C)C(N)=O)c1` [Example 164], in that order: less than 200 nM and less than 500 nM.
As for `COc1cc(C(=O)NC[C@@](O)(c2ccccc2)c2cc3c(c(-c4cc(Cl)c(F)cc4F)n2)OC[C@]3(C)C(N)=O)cc2cc(C)cnc12` [Example 80], the figures for the EC50 (in assay [1]; with hMPV A2 TN/94-49) were less than 200 nM and less than 500 nM, respectively.
Taken in the same sequence, the figures for `[2H]C([2H])([2H])c1nc2c(OC(F)F)cc(C(=O)NC[C@](O)(c3cc4c(c(-c5cc(Cl)c(F)cc5F)n3)OC[C@]4(C)C(N)=O)C3CC3)cc2cc1Br` [Example 11] were less than 200 nM and more than 500 nM.
Taken in the same sequence, the figures for `COc1cc(C(=O)NC[C@](O)(c2cc3c(c(-c4ccc(F)c(CO)c4F)n2)OC[C@]3(C)C(N)=O)C2CC2)cc2cn(C3CC3)nc12` [Example 72] were less than 200 nM and more than 500 nM.
Taken in the same sequence, the figures for `COc1cc(C(=O)NC[C@@](O)(c2cc3c(c(-c4ccc(F)cc4O)n2)OC[C@]3(C)C(N)=O)C2CC2)cc2cn(C3CC3)nc12` [Example 64] were less than 200 nM and more than 500 nM.
`[2H]C([2H])([2H])c1nc2c(OC)cc(C(=O)NC[C@@](O)(c3cccc(OC)c3)c3cc4c(c(-c5cc(Cl)c(F)cc5F)n3)OC[C@]4(C)C(N)=O)cc2s1` [Example 163]: the EC50 is less than 200 nM in assay [1] and less than 500 nM in the assay with hMPV A2 TN/94-49.
Taken in the same sequence, the figures for `COc1cc(C(=O)NC[C@](O)(c2cc3c(c(-c4cccc(SC(F)(F)F)c4)n2)OC[C@]3(C)C(N)=O)C2CC2)cc2cn(C3CC3)nc12` [Example 36] were less than 200 nM and more than 500 nM.
Taken in the same sequence, the figures for `CNC(=O)[C@@]1(C)COc2c1cc([C@@](O)(CNC(=O)c1cc(OC)c3nn(C4CC4)cc3c1)c1ccccc1)nc2-c1cc(Cl)c(F)cc1F` [Example 141] were less than 200 nM and less than 500 nM.
Taken in the same sequence, the figures for `[2H]C([2H])([2H])c1nc2c(OC)cc(C(=O)NC[C@@](O)(c3ccccc3)c3cc4c(c(-c5ccc6c(c5)OC(F)(F)O6)n3)OC[C@]4(C)C(N)=O)cc2s1` [Example 9] were less than 200 nM and less than 500 nM.
As for `COc1cc(C(=O)NC[C@@](O)(c2ccccc2)c2cc3c(c(-c4cc(Cl)c(F)cc4F)n2)OC[C@]3(C)C(N)=O)cc2cc(Cl)c(C)nc12` [Example 159], the EC50 in assay [1] was less than 200 nM; with hMPV A2 TN/94-49, less than 500 nM.
Turning to `C[C@]1(C(N)=O)COc2c1cc([C@@](O)(CNC(=O)c1cc(OC(F)F)c3nn(C4CC4)cc3c1)C1CC1)nc2-c1ccc(F)c(F)c1Cl` [Example 39], the EC50 in assay [1] was less than 200 nM; in the assay on hMPV A2 TN/94-49, less than 500 nM.
Regarding `COc1cc(C(=O)NC[C@@](O)(c2ccccc2)c2cc3c(c(-c4cc(C(F)(F)F)ccc4F)n2)OC[C@]3(C)C(N)=O)cc2cc(C3CC3)nn12` [Example 149], the figures for the 50% effective concentration (EC50) (in assay [1]; in the assay on hMPV A2 TN/94-49) were less than 200 nM and less than 500 nM, respectively.
Taken in the same sequence, the figures for `[2H]C([2H])([2H])c1cc2cc(C(=O)NC[C@](O)(c3cc4c(c(-c5cc(Cl)c(F)cc5F)n3)OC[C@]4(C)C(N)=O)C3CC3)cc(OC)c2nc1C([2H])([2H])[2H]` [Example 29] were less than 200 nM and less than 500 nM.
For `COc1cc(F)ccc1-c1nc([C@@](O)(CNC(=O)c2cc(OC)c3nn(C4CC4)cc3c2)C2CC2)cc2c1OC[C@]2(C)C(N)=O` [Example 67], in that order: less than 200 nM and more than 500 nM.
For `C[C@]1(C(N)=O)COc2c1cc([C@@](O)(CNC(=O)c1cc(OC(F)F)c3nn(C4CC4)cc3c1)C1CC1)nc2-c1ccc(F)c(Cl)c1F` [Example 40], in that order: less than 200 nM and less than 500 nM.
With `COc1cc(C(=O)NC[C@@](O)(c2ccccc2)c2cc3c(c(-c4cc(C(F)(F)F)ccc4F)n2)OC[C@]3(C)C(N)=O)cc2cn(C(F)F)nc12` [Example 148], the EC50 was less than 200 nM in assay [1] and less than 500 nM in the assay on hMPV A2 TN/94-49.
With `[2H]C([2H])([2H])c1nc2c(OC)cc(C(=O)NC[C@@](O)(c3cccc(F)c3)c3cc4c(c(-c5ccc(F)c(Cl)c5Cl)n3)OC[C@]4(C)C(N)=O)cc2s1` [Example 272], the half-maximal effective concentration (EC50) in assay [1] was less than 200 nM; with hMPV A2 TN/94-49 it was less than 500 nM.
For `COc1cc(C(=O)NC[C@@](O)(c2ccccc2)c2cc3c(c(-c4cc(C(F)F)c(F)cc4F)n2)OC[C@]3(C)C(N)=O)cc2cn(C3CC3)nc12` [Example 288], in that order: less than 200 nM and less than 500 nM.
For `C[C@]1(C(N)=O)COc2c1cc([C@@](O)(CNC(=O)c1cc(OC(F)F)c3nn(C4CC4)cc3c1)C1CC1)nc2-c1cc(F)c(F)cc1F` [Example 6], in that order: less than 200 nM and less than 500 nM.
For `COc1cc(C(=O)NC[C@](O)(c2cc3c(c(-c4cc(C(F)(F)F)ccc4C)n2)OC[C@]3(C)C(N)=O)C2CC2)cc2cn(C3CC3)nc12` [Example 53], in that order: less than 200 nM and less than 500 nM.
Take `COc1cc(C(=O)NC[C@@](O)(c2cccc(F)c2)c2cc3c(c(-c4ccc5c(c4Cl)OC(F)(F)O5)n2)OC[C@]3(C)C(N)=O)cc2cn(C3CC3)nc12` [Example 274]: the EC50 is less than 200 nM in assay [1] and less than 500 nM in the assay with hMPV A2 TN/94-49.
For `COc1cc(C(=O)NC[C@@](O)(c2ccc(F)cc2)c2cc3c(c(-c4ccc(F)c(Cl)c4Cl)n2)OC[C@]3(C)C(N)=O)cc2cc(C3CC3)nn12` [Example 45], in that order: less than 200 nM and less than 500 nM.
For `C[C@]1(C(N)=O)COc2c1cc([C@@](O)(CNC(=O)c1cc(OC3CC3)c3nn(C4CC4)cc3c1)C1CC1)nc2-c1cc(Cl)c(F)cc1F` [Example 2], in that order: less than 200 nM and less than 500 nM.
Turning to `COc1cc(C(=O)NC[C@](O)(c2cc3c(c(-c4cc(Cl)c(Cl)cc4Cl)n2)OC[C@]3(C)C(N)=O)C2CC2)cc2cn(C3CC3)nc12` [Example 62], the EC50 in assay [1] is less than 200 nM; with hMPV A2 TN/94-49, more than 500 nM.
Consider `COc1cc(C(=O)NC[C@](O)(c2cc3c(c(-c4ccc(C)c(C(F)(F)F)c4)n2)OC[C@]3(C)C(N)=O)C2CC2)cc2cn(C3CC3)nc12` [Example 56], for which the values for the EC50 (in assay [1]; in the assay with hMPV A2 TN/94-49) were less than 200 nM and more than 500 nM, respectively.
Taken in the same sequence, the figures for `COc1cc(C(=O)NC[C@](O)(c2cc3c(c(-c4cc(C)cc(F)c4F)n2)OC[C@]3(C)C(N)=O)C2CC2)cc2cn(C3CC3)nc12` [Example 49] were less than 200 nM and more than 500 nM.
Taken in the same sequence, the figures for `COc1cc(C(=O)NC[C@@](O)(c2ccccc2)c2cc3c(c(-c4cccc(Cl)c4Cl)n2)OC[C@]3(C)C(N)=O)cc2cn(C(F)F)nc12` [Example 261] were less than 200 nM and less than 500 nM.
Taken in the same sequence, the figures for `[2H]C([2H])([2H])c1cc2cc(C(=O)NC[C@](O)(c3cc4c(c(-c5cc(F)c(F)cc5F)n3)OC[C@]4(C)C(N)=O)C3CC3)cc(OC)c2nc1C([2H])([2H])[2H]` [Example 28] were less than 200 nM and less than 500 nM.
Consider `COc1cc(C(=O)NC[C@@](O)(c2ccc(F)cc2)c2cc3c(c(-c4ccc(F)c(Cl)c4Cl)n2)OC[C@]3(C)C(N)=O)cc2cc(Cl)c(C)nc12` [Example 44], for which the EC50 is less than 200 nM in assay [1] and less than 500 nM in the assay on hMPV A2 TN/94-49.
